Test: mn = molality of the nth substance listed, in mol/kg
Settings: Liquid, Capillary tube (Ostwald / Ubbelohde) method

[I-].[Li+] [lithium iodide] + O
viscosity [mPa·s]
Settings	100 kPa	10000 kPa	40000 kPa
293.15 K, m1 = 0.08	1.009	1.005	0.9978
293.15 K, m1 = 0.16	1.015	1.012	1.004
293.15 K, m1 = 0.2832	1.025	1.02	1.014
293.15 K, m1 = 0.6621	1.05	1.047	1.039
293.15 K, m1 = 1.605	1.122	1.118	1.112
293.15 K, m1 = 2.16	1.158	1.154	1.147
293.15 K, m1 = 3.089	1.227	1.224	1.215
298.15 K, m1 = 0.08	0.8961	0.8946	0.892
298.15 K, m1 = 0.16	0.9025	0.9012	0.8979
298.15 K, m1 = 0.2832	0.9114	0.9098	0.907
298.15 K, m1 = 0.6621	0.9363	0.9351	0.9225
298.15 K, m1 = 1.605	1.002	1.001	0.9979
298.15 K, m1 = 2.16	1.04	1.038	1.035
298.15 K, m1 = 3.089	1.108	1.101	1.097
304.75 K, m1 = 0.6621	0.8141	0.8149	0.8164
304.77 K, m1 = 0.08	0.7764	0.777	0.7779
307.45 K, m1 = 3.089	0.9235	0.925	0.9291
308.74 K, m1 = 0.16	0.7215	0.7221	0.7256
310.64 K, m1 = 0.2832	0.7028	0.7047	0.7074
311.74 K, m1 = 1.605	0.7684	0.77	0.7748
312.45 K, m1 = 2.16	0.7939	0.7957	0.8016
322.51 K, m1 = 0.2832	0.5682	0.5704	0.5768
323.45 K, m1 = 1.605	0.6301	0.6327	0.6406
323.74 K, m1 = 0.16	0.5504	0.5527	0.5599
324.02 K, m1 = 2.16	0.6554	0.6584	0.6666
324.23 K, m1 = 0.6621	0.5733	0.5758	0.5829
324.62 K, m1 = 0.08	0.5385	0.5407	0.5475
325.64 K, m1 = 3.089	0.6865	0.6896	0.6986
341.69 K, m1 = 0.08	0.4164	0.4192	0.4252
343.64 K, m1 = 0.6621	0.4337	0.4368	0.4458
344.06 K, m1 = 0.16	0.4065	0.4093	0.4177
344.66 K, m1 = 1.605	0.4673	0.4708	0.4804
345.43 K, m1 = 2.16	0.4884	0.4912	0.5015
347.42 K, m1 = 0.2832	0.394	0.3976	0.4052
348.24 K, m1 = 3.089	0.5101	0.5144	0.5255
363.94 K, m1 = 3.089	0.4275	0.4317	0.4435
364.95 K, m1 = 2.16	0.3905	0.3944	0.4048
367.05 K, m1 = 0.2832	0.3119	0.3142	0.3227
368.75 K, m1 = 1.605	0.3544	0.358	0.3678
368.79 K, m1 = 0.16	0.3014	0.3044	0.3128
369.35 K, m1 = 0.08	0.2968	0.2996	0.3079
369.49 K, m1 = 0.6621	0.3189	0.3222	0.3313
396.7 K, m1 = 0.08	–	0.2301	0.2381
397.72 K, m1 = 2.16	–	0.2921	0.3023
397.82 K, m1 = 0.16	–	0.2304	0.2385
398.32 K, m1 = 0.2832	–	0.2331	0.2414
398.72 K, m1 = 3.089	–	0.3165	0.3278
398.94 K, m1 = 1.605	–	0.2713	0.2809
399.03 K, m1 = 0.6621	–	0.2447	0.2534
421.45 K, m1 = 0.6621	–	0.206	0.2139
422.12 K, m1 = 0.08	–	0.1885	0.1959
422.41 K, m1 = 3.089	–	0.2666	0.277
422.47 K, m1 = 1.605	–	0.2275	0.2363
424.14 K, m1 = 0.2832	–	0.1913	0.1988
424.41 K, m1 = 2.16	–	0.24	0.2494
424.49 K, m1 = 0.16	–	0.1874	0.1947
444.25 K, m1 = 2.16	–	0.2119	0.2206
447.54 K, m1 = 3.089	–	0.2284	0.2383
447.94 K, m1 = 1.605	–	0.1945	0.2029
448.75 K, m1 = 0.16	–	0.1602	0.1674
449.02 K, m1 = 0.08	–	0.1581	0.1648
449.06 K, m1 = 0.6621	–	0.1725	0.1802
449.71 K, m1 = 0.2832	–	0.1622	0.1696
472.45 K, m1 = 0.08	–	0.1387	0.1452
472.92 K, m1 = 0.2832	–	0.1429	0.1501
473.06 K, m1 = 1.605	–	0.1699	0.1784
473.07 K, m1 = 2.16	–	0.1815	0.19
473.46 K, m1 = 0.16	–	0.1397	0.1467
473.71 K, m1 = 3.089	–	0.1992	0.2091
474.98 K, m1 = 0.6621	–	0.1497	0.1572
522.7 K, m1 = 0.16	–	0.1109	0.1182
523.42 K, m1 = 3.089	–	0.1603	0.1711
523.72 K, m1 = 0.08	–	0.1089	0.1163
524.07 K, m1 = 0.2832	–	0.1123	0.1199
524.86 K, m1 = 1.605	–	0.1344	0.1433
525.42 K, m1 = 0.6621	–	0.1185	0.1266
525.49 K, m1 = 2.16	–	0.1435	0.1531

From the NIST ThermoML archive (doi:10.1016/j.tca.2005.08.036)
